In ChEMBL document CHEMBL5029191, “The Inhibitors of Protein Tyrosine Phosphatase Nonreceptor Type 2 (PTPN2) as Potential Enhancers of Cancer Immunotherapy and Type 1 (PTPN1) as Treatment of Metabolic Diseases” (ACS Med Chem Lett, 2022):

Test system: B16-F10
Experiment: Growth inhibition of […]-induced mouse B16-F10 cells at 33 uM relative to control
Assay type: functional
Settings: read-out: GI

Row | Compound | inhibition of growth at 33 µM [%]
1 | O=C1CN(c2c(O)cc3ccc(OCCC4CC4(F)F)cc3c2F)S(=O)(=O)N1 (centres undefined) | 60
2 | O=C1CN(c2c(O)cc3ccc(-c4cnn(CC5CC5)c4)cc3c2F)S(=O)(=O)N1 | 60
3 | O=C1CN(c2c(O)cc3ccc(NCCC4CC4)cc3c2F)S(=O)(=O)N1 | > 90
4 | CC(C)CCS(=O)(=O)N1CC=C(c2ccc3cc(O)c(N4CC(=O)NS4(=O)=O)c(F)c3c2)C1 | 60
5 | CC(C)(C#N)CCOc1ccc2cc(O)c(N3CC(=O)NS3(=O)=O)c(F)c2c1 | 60
6 | O=C1CN(c2c(O)cc3ccc(OCC4CCCOC4)cc3c2F)S(=O)(=O)N1 (centres undefined) | 60
7 | O=C1CN(c2c(O)cc3ccc(NCCN4CCC4)cc3c2F)S(=O)(=O)N1 | > 90
8 | C[C@H](O)CCOc1ccc2cc(O)c(N3CC(=O)NS3(=O)=O)c(F)c2c1 | > 90
9 | CCS(=O)(=O)N1CC=C(c2ccc3cc(O)c(N4CC(=O)NS4(=O)=O)c(F)c3c2)C1 | > 90
10 | O=C1CN(c2c(O)cc3ccc(C4CCN(S(=O)(=O)C5CC5)C4)cc3c2F)S(=O)(=O)N1 (centres undefined) | 60

Biological target: T1, Tyrosine-protein phosphatase non-receptor type 2 (Homo sapiens, UniProt P17706)
T1 sequence (P17706 whole entry): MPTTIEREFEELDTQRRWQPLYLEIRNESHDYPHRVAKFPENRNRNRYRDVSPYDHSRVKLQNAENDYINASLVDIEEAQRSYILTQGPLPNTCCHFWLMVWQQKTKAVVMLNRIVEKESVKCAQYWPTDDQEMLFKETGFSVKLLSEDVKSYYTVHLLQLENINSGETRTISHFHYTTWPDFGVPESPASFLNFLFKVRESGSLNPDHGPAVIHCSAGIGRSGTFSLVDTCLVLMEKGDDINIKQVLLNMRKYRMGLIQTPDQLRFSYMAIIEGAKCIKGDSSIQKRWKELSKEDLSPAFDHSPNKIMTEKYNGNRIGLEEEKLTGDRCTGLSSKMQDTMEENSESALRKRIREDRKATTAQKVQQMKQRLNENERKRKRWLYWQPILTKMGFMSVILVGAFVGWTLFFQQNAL
Experiment: Inhibition of PTPN2 (unknown origin) by Mobility shift assay
Settings: not given

Row | Compound | IC50 [nM]
11 | O=C1CN(c2c(O)cc3ccc(OCCC4CC4(F)F)cc3c2F)S(=O)(=O)N1 (centres undefined) | < 1
12 | O=C1CN(c2c(O)cc3ccc(NCCC4CC4)cc3c2F)S(=O)(=O)N1 | 1
13 | CC(C)(C#N)CCOc1ccc2cc(O)c(N3CC(=O)NS3(=O)=O)c(F)c2c1 | < 1
14 | O=C1CN(c2c(O)cc3ccc(OCC4CCCOC4)cc3c2F)S(=O)(=O)N1 (centres undefined) | < 1
15 | C[C@H](O)CCOc1ccc2cc(O)c(N3CC(=O)NS3(=O)=O)c(F)c2c1 | < 1
16 | CC(C)(O)CCOc1ccc2c(F)c(N3CC(=O)NS3(=O)=O)c(O)cc2c1 | > 10
17 | CC(C)(C#N)CCOc1cc2c(F)c(N3CC(=O)NS3(=O)=O)c(O)cc2cc1O | < 1
18 | O=C1CN(c2c(O)cc3ccc(C4CCN(S(=O)(=O)C5CC5)C4)cc3c2F)S(=O)(=O)N1 (centres undefined) | < 1

Further lines, results first:

Row | IC50 [nM] | Compound
19 | < 1 | O=C1CN(c2c(O)cc3ccc(-c4cnn(CC5CC5)c4)cc3c2F)S(=O)(=O)N1
20 | < 1 | CC(C)CCS(=O)(=O)N1CC=C(c2ccc3cc(O)c(N4CC(=O)NS4(=O)=O)c(F)c3c2)C1
21 | 1 | O=C1CN(c2c(O)cc3ccc(NCCN4CCC4)cc3c2F)S(=O)(=O)N1
22 | < 1 | CCS(=O)(=O)N1CC=C(c2ccc3cc(O)c(N4CC(=O)NS4(=O)=O)c(F)c3c2)C1

Biological target: T2, Tyrosine-protein phosphatase non-receptor type 1 (Homo sapiens, UniProt P18031)
T2 sequence (P18031 whole entry): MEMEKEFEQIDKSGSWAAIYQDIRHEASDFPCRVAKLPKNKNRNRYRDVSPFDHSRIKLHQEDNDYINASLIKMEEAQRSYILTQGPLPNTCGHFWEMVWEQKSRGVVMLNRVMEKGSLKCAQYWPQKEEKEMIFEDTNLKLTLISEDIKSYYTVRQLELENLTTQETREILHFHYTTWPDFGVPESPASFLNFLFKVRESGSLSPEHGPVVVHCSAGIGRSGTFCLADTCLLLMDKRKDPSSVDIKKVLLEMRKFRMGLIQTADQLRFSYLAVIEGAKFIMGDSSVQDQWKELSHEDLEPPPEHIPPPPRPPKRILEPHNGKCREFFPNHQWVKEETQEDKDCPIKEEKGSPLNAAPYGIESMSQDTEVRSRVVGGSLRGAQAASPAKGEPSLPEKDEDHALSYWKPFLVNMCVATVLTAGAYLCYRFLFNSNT
Experiment: Inhibition of PTPN1 (unknown origin) by Mobility shift assay
Settings: not given

Row | Compound | IC50 [nM]
23 | O=C1CN(c2c(O)cc3ccc(OCCC4CC4(F)F)cc3c2F)S(=O)(=O)N1 (centres undefined) | < 1
24 | O=C1CN(c2c(O)cc3ccc(NCCC4CC4)cc3c2F)S(=O)(=O)N1 | 1
25 | CC(C)(C#N)CCOc1ccc2cc(O)c(N3CC(=O)NS3(=O)=O)c(F)c2c1 | < 1
26 | O=C1CN(c2c(O)cc3ccc(OCC4CCCOC4)cc3c2F)S(=O)(=O)N1 (centres undefined) | > 100
27 | C[C@H](O)CCOc1ccc2cc(O)c(N3CC(=O)NS3(=O)=O)c(F)c2c1 | 1
28 | CC(C)(O)CCOc1ccc2c(F)c(N3CC(=O)NS3(=O)=O)c(O)cc2c1 | > 100
29 | CC(C)(C#N)CCOc1cc2c(F)c(N3CC(=O)NS3(=O)=O)c(O)cc2cc1O | < 1
30 | O=C1CN(c2c(O)cc3ccc(C4CCN(S(=O)(=O)C5CC5)C4)cc3c2F)S(=O)(=O)N1 (centres undefined) | 1

Results, then the compound that gave them:

Row | IC50 [nM] | Compound
31 | < 1 | O=C1CN(c2c(O)cc3ccc(-c4cnn(CC5CC5)c4)cc3c2F)S(=O)(=O)N1
32 | < 1 | CC(C)CCS(=O)(=O)N1CC=C(c2ccc3cc(O)c(N4CC(=O)NS4(=O)=O)c(F)c3c2)C1
33 | > 100 | O=C1CN(c2c(O)cc3ccc(NCCN4CCC4)cc3c2F)S(=O)(=O)N1
34 | < 1 | CCS(=O)(=O)N1CC=C(c2ccc3cc(O)c(N4CC(=O)NS4(=O)=O)c(F)c3c2)C1

Test system: B16-F10
Experiment: Growth inhibition of mouse B16-F10 cells at 33 uM relative to control
Assay type: functional
Settings: read-out: GI

Row | Compound | inhibition of growth at 33 µM [%]
35 | O=C1CN(c2c(O)cc3ccc(OCCC4CC4(F)F)cc3c2F)S(=O)(=O)N1 (centres undefined) | < 25
36 | O=C1CN(c2c(O)cc3ccc(-c4cnn(CC5CC5)c4)cc3c2F)S(=O)(=O)N1 | < 25
37 | O=C1CN(c2c(O)cc3ccc(NCCC4CC4)cc3c2F)S(=O)(=O)N1 | < 25
38 | CC(C)CCS(=O)(=O)N1CC=C(c2ccc3cc(O)c(N4CC(=O)NS4(=O)=O)c(F)c3c2)C1 | < 25
39 | CC(C)(C#N)CCOc1ccc2cc(O)c(N3CC(=O)NS3(=O)=O)c(F)c2c1 | < 25
40 | O=C1CN(c2c(O)cc3ccc(OCC4CCCOC4)cc3c2F)S(=O)(=O)N1 (centres undefined) | < 25
41 | O=C1CN(c2c(O)cc3ccc(NCCN4CCC4)cc3c2F)S(=O)(=O)N1 | < 25
42 | C[C@H](O)CCOc1ccc2cc(O)c(N3CC(=O)NS3(=O)=O)c(F)c2c1 | < 25
43 | CCS(=O)(=O)N1CC=C(c2ccc3cc(O)c(N4CC(=O)NS4(=O)=O)c(F)c3c2)C1 | < 25
44 | O=C1CN(c2c(O)cc3ccc(C4CCN(S(=O)(=O)C5CC5)C4)cc3c2F)S(=O)(=O)N1 (centres undefined) | < 25
